Source: patent US20200068887A1, “TREATMENT FOR REMOVING ECTOPARASITES FROM FISH” (priority 2016, published 2020)

Key:
Type in all cases: in vivo
Lepeophtheirus salmonis [1] = experiment: Immersion treatment of sea lice challenged salmon with 10, 30 and 50 ppm imidacloprid; settings: for Abundance (and range) of adult female lice / Abundance (and range) of adult male lice / Abundance (and range) of ovigerous females / Mean abundance (and range) or all lice stages / Prevalence: lice counted week 8
Description: Eight flow-through treatment tanks each containing 15 fish were set up. The fish were Salmon (Salmo salar) having an average weight of approximately 270 g and of mixed sex. Egg strings removed from ovigerous female Lepeophtheirus salmonis were collected and cultured until infective copepodids were produced. Eight bottles containing approximately 330-350 copepodids were each randomly allocated to a treatment tank (to provide an average of 22 lice per fish).
In preparation for the challenge, water flows in the tanks were stopped and light levels reduced. The lice were then added to each tank and the tanks maintained in total darkness for 6 hours after which light levels were raised and the water flow resumed.
The fish were challenged with sea lice for either one week or for six weeks.
One week after the sea lice challenge, fish in three of the tanks were treated with either 10 ppm w/v, 30 ppm w/v or 50 ppm w/v imidacloprid. One of the tanks was treated with 0.03% DMSO and another tank sham treated with sea water as controls.
For each treatment tank, the appropriate amount of imidacloprid (see Table 1) was dissolved in 100 ml of DMSO and mixed with approximately 900 ml of sea water from the experimental tank to obtain a treatment solution. The water flow on the experimental tanks was disabled and the treatment solution was then added.
Fish were exposed for 60 minutes in static water with full aeration and observed during the exposure period. At the end of the exposure period the water was rapidly drained to approximately ⅓ volume, before the flows were resumed in the tanks
Six weeks after the fish were challenged with sea lice, the fish in the three remaining treatment tanks were treated with either 10 ppm w/v, 30 ppm w/v or 50 ppm w/v imidacloprid. The treatment was carried out in the same way as for the treatment tanks one week post challenge (see 1.2.1).
Eight weeks after the fish were challenged with sea lice, the study was terminated. Fish were over anaesthetised in MS222 (tricaine methanesulfonate) and pithed using an Iki Jime tool. The length and weight of each fish and external symptoms were recorded. All lice were removed from each fish and note made of sex and stage of development. The lice were stored in ethanol and sex and stage confirmed using stereo microscope.
The data is expressed as prevalence and abundance. Prevalence is defined as the number of hosts infected with one of more individuals of a parasite species divided by the number of hosts examined (including infected and uninfected hosts) and expressed as a percentage.

fish = experiment: Safety of imidacloprid treatment on fish
Experimental: The safety of the imidacloprid treatment on fish was assessed. Fish held in a flow through tank containing 271.8 L of sea water were exposed to 65 ppm w/v of the active ingredient imidacloprid. 17.67 g of imidacloprid was dissolved in 100 ml of dimethyl sulfoxide (DMSO) and the solution was added to approximately 900 ml sea water and mixed. The flow on the through tank was disabled and the solution of imidacloprid was added.
The fish were exposed to 65 ppm imidacloprid in static water for 1 hour and observed for behavioural changes at 5-10 minute intervals. The fish were then held for a further 7 days before being terminated.

Lepeophtheirus salmonis [2] = experiment: Relative efficacy study (optimisation of treatment concentration); settings: for Parasite clearance: n=2, ±SEM
Experimental: 120 salmon fish (Salmo salar) were divided across five flow-through treatment tanks and acclimated for 24 hours prior to parasite challenge.
Egg strings removed from ovigerous female Lepeophtheirus salmonis were collected and cultured until infective copepodids were produced. The copepodids were then evenly distributed into five bottles containing sea water and stored at ˜10° C. overnight. In preparation for the challenge, water flows in the treatment tanks were stopped and light levels reduced. 650±20 copepodids (˜27 per host) were added to the static water and the tanks maintained in total darkness for 7 hours after which light levels were raised and the water flow resumed.
Fish were randomly divided into ten groups of ten fish and held in static ‘treatment buckets’ containing 30 L of water and high aeration as shown in Table 3.
Eight of the groups (3-10) were treated with the required concentrations of imidacloprid for 60 minutes: imidacloprid was dissolved in DMSO and added to ˜1L of tank water prior to addition to the treatment buckets. The remaining group and its replicate (1 & 2) were DMSO controls at 0.03%.
Experimental animals were monitored closely for adverse reactions and the status of the parasite infection. Where possible the time at which all parasites were thought to have detached was recorded. As treatments were performed in static systems, temperature and dissolved oxygen were regularly monitored throughout the procedure and aeration adjusted as required.
After the treatment period, the test animals were removed from the treatment solution and humanly euthanised. Each fish was weighed, measured, and its individual parasite burden assessed. The number of parasites in the treatment solution was also counted and qualitatively assessed for: sex and maturity, apparent signs of neonicotinoid poisoning, and/or potential recovery.
Logistic regression was used to compare parasite clearance after treatment with each of the concentration. Logistic regression analyses were performed using the glm function in R v.2.13.0 and assumed a binomial or quasi-binomial error distribution (determined through the comparison of the null deviance with the degrees of freedom).

Atlantic salmon = experiment: Fish behaviour/appearance and mortality during bath treatment trial; settings: 20 ppm to 200 ppm, exposure 3 to 60 minutes
Experimental: Fish behaviour/appearance was assessed in vivo during each test. Any changes in behaviour and/or appearance including mortality were recorded.

[3] = 10 ppm w/v 60 min, treated 1 week post challenge
[4] = 10 ppm w/v 60 min, treated 6 weeks post challenge
[5] = 30 ppm w/v 60 min, treated 1 week post challenge
[6] = 30 ppm w/v 60 min, treated 6 weeks post challenge
[7] = 50 ppm w/v 60 min, treated 1 week post challenge, two fish removed from group
[8] = 50 ppm w/v 60 min, treated 6 weeks post challenge

O=[N+]([O-])NC1=NCCN1Cc1ccc(Cl)nc1 [imidacloprid]
prevalence of infection of all lice stages versus the two control groups (Lepeophtheirus salmonis [1]; 10, 30 or 50 ppm w/v, treated one week post challenge, examined week 8): not considered to differ | Abundance (and range) of adult female lice (Lepeophtheirus salmonis [1]; [3]): 0.067 (0-1) | Abundance (and range) of adult male lice (Lepeophtheirus salmonis [1]; [3]): 0.87 (0-2) | Abundance (and range) of ovigerous females (Lepeophtheirus salmonis [1]; [3]): 1.47 (0-3) | Mean abundance (and range) or all lice stages (Lepeophtheirus salmonis [1]; [3]): 2.4 (1-5) | Prevalence (Lepeophtheirus salmonis [1]; [3]): 100% | Abundance (and range) of adult female lice (Lepeophtheirus salmonis [1]; [4]): 0 | Abundance (and range) of adult male lice (Lepeophtheirus salmonis [1]; [4]): 0 | Abundance (and range) of ovigerous females (Lepeophtheirus salmonis [1]; [4]): 0 | Mean abundance (and range) or all lice stages (Lepeophtheirus salmonis [1]; [4]): 0 | Prevalence (Lepeophtheirus salmonis [1]; [4]): 0% | infected fish (each with a single ovigerous female) (Lepeophtheirus salmonis [1]; 10 ppm w/v, 6 weeks post challenge, 54 minutes after addition): 2 fish | lice remaining on fish (Lepeophtheirus salmonis [1]; 10 ppm w/v, 6 weeks post challenge, 91 minutes after addition, louse stayed at least five days): a single male louse was observed on the head of its host | lice observed in the water column (Lepeophtheirus salmonis [1]; 10 ppm w/v, 6 weeks post challenge, first 19 minutes after addition): Lice were not observed in the water column | Abundance (and range) of adult female lice (Lepeophtheirus salmonis [1]; [5]): 0 (0-0) | Abundance (and range) of adult male lice (Lepeophtheirus salmonis [1]; [5]): 0.8 (0-1) | Abundance (and range) of ovigerous females (Lepeophtheirus salmonis [1]; [5]): 1.4 (0-3) | Mean abundance (and range) or all lice stages (Lepeophtheirus salmonis [1]; [5]): 2.2 (0-4) | Prevalence (Lepeophtheirus salmonis [1]; [5]): 93.33% | Abundance (and range) of adult female lice (Lepeophtheirus salmonis [1]; [6]): 0 | Abundance (and range) of adult male lice (Lepeophtheirus salmonis [1]; [6]): 0 | Abundance (and range) of ovigerous females (Lepeophtheirus salmonis [1]; [6]): 0 | Mean abundance (and range) or all lice stages (Lepeophtheirus salmonis [1]; [6]): 0 | Prevalence (Lepeophtheirus salmonis [1]; [6]): 0% | lice on the fish with re-attached lice (Lepeophtheirus salmonis [1]; 30 ppm w/v, 6 weeks post challenge, 6 minutes after the 78 minute observation): no lice were observed on these fish | lice observed in the water column (Lepeophtheirus salmonis [1]; 30 ppm w/v, 6 weeks post challenge, 10 minutes after addition): 1-2 lice | lice present in the water column (Lepeophtheirus salmonis [1]; 30 ppm w/v, 6 weeks post challenge, 18 minutes after addition): approximately 10 lice | lice noted in the water (Lepeophtheirus salmonis [1]; 30 ppm w/v, 6 weeks post challenge, 25 minutes after addition): approximately 20 lice | fish appearing infected (estimated 1-2 lice per fish) (Lepeophtheirus salmonis [1]; 30 ppm w/v, 6 weeks post challenge, 25 minutes after addition, 15 fish per tank): less than 6 fish | infection status of fish (Lepeophtheirus salmonis [1]; 30 ppm w/v, 6 weeks post challenge, 33 minutes after addition): most fish were considered to be negative for any lice infections | fish appearing infected (each with a single louse) (Lepeophtheirus salmonis [1]; 30 ppm w/v, 6 weeks post challenge, 47 minutes after addition): 3 fish | infection status of fish (Lepeophtheirus salmonis [1]; 30 ppm w/v, 6 weeks post challenge, 59 minutes after addition): no fish were visibly infected with lice | fish with re-attached louse (1 louse each) (Lepeophtheirus salmonis [1]; 30 ppm w/v, 6 weeks post challenge, 78 minutes after addition): 4 fish | lesions associated with feeding and attachment of lice (Lepeophtheirus salmonis [1]; 30 ppm w/v, two days post-treatment): almost completely resolved | Abundance (and range) of adult male lice (Lepeophtheirus salmonis [1]; [7]): 1.23 (0-3) | Abundance (and range) of ovigerous females (Lepeophtheirus salmonis [1]; [7]): 1.69 (0-5) | Abundance (and range) of adult female lice (Lepeophtheirus salmonis [1]; [8]): 0 | Abundance (and range) of adult male lice (Lepeophtheirus salmonis [1]; [8]): 0 | Abundance (and range) of ovigerous females (Lepeophtheirus salmonis [1]; [8]): 0 | Mean abundance (and range) or all lice stages (Lepeophtheirus salmonis [1]; [8]): 0 | Prevalence (Lepeophtheirus salmonis [1]; [8]): 0% | fish noted as infected (each with a single louse) (Lepeophtheirus salmonis [1]; 50 ppm w/v, 6 weeks post challenge, 44 minutes after addition, 15 fish per tank): five | fish with a single louse infection (Lepeophtheirus salmonis [1]; 50 ppm w/v, 6 weeks post challenge, 53 minutes after addition): 2-3 fish | lice remaining on fish (Lepeophtheirus salmonis [1]; 50 ppm w/v, 6 weeks post challenge, 58 minutes after addition): only one louse was apparent on a single fish | lice remaining on fish (Lepeophtheirus salmonis [1]; 50 ppm w/v, 6 weeks post challenge, 81 minutes after addition): no lice were visible on the fish | lice detached from the host, free in the water column (Lepeophtheirus salmonis [1]; 50 ppm w/v, 6 weeks post challenge, after 12 minutes): approximately 10 lice | lice observed in the water column (Lepeophtheirus salmonis [1]; 50 ppm w/v, 6 weeks post challenge, after 18 minutes): approximately 20 lice | lice observed in the water column (Lepeophtheirus salmonis [1]; 50 ppm w/v, 6 weeks post challenge, between 2 and 6 minutes after addition): No lice were observed | lesions associated with feeding and attachment of lice (Lepeophtheirus salmonis [1]; 50 ppm w/v, two days post treatment): almost completely resolved | effectiveness against motile parasitic stages of lice (Lepeophtheirus salmonis [1]; all treatment doses (10, 30, 50 ppm w/v), treated six weeks after challenge): 100% | overall lice abundances compared with the DMSO control (Lepeophtheirus salmonis [1]; treated one week post challenge): No significant differences | adverse reactions during monitoring after exposure (fish; 65 ppm w/v for 1 hour, monitored a further 7 days): no adverse reactions being noted | external pathologies on termination (fish; 65 ppm w/v for 1 hour, terminated after 7 days): no external pathologies were noted | changes in fish behaviour during the exposure period (fish; 65 ppm w/v, static water, 1 hour): No observable changes in fish behaviour | parasites remaining attached to their hosts at sampling (Lepeophtheirus salmonis [2]; 10 mg/l, 60 min): 20% | Parasite clearance (Lepeophtheirus salmonis [2]; 10 mg/l, 60 min): 80±11% | parasites remaining attached to their hosts at sampling (Lepeophtheirus salmonis [2]; 15 mg/l, 60 min): 8% | Parasite clearance (Lepeophtheirus salmonis [2]; 15 mg/l, 60 min): 92±4% | parasites remaining attached to their hosts at sampling (Lepeophtheirus salmonis [2]; 20 mg/l, 60 min): 8% | Parasite clearance (Lepeophtheirus salmonis [2]; 20 mg/l, 60 min): 92±7% | parasites remaining attached to their hosts at sampling (Lepeophtheirus salmonis [2]; 25 mg/l, 60 min): 3% | Parasite clearance (Lepeophtheirus salmonis [2]; 25 mg/l, 60 min): 97±3% | parasite infection removed (Lepeophtheirus salmonis [2]; all four dosages (10, 15, 20, 25 mg/l), 60 minute treatment): 80-100% | optimum concentration within the range tested (Lepeophtheirus salmonis [2]; range 10-25 mg/l, 60 min, no significant increase in efficacy above): 15 mg/L | fish mortality in the trial (Atlantic salmon): No fish died in the trial
